According to US11787785B2 (NOVARTIS AG, priority 2021, dated 2023):

Molecular target: T1, WIZ protein (HiBit-WIZ fusion protein) (Homo sapiens, UniProt O95785+Q96SW2)
T1 construct: expressed in transfected cells
Test: Quantification of WIZ protein levels in HiBit tag fusion protein assay (WIZ HiBit assay in 293T cells)
Assay type: cell-based
Set-up: remaining activity / Dmax: dose or concentration left out as unconfirmed
Settings: for DC50: WIZ HiBit assay in 293T cells, 10-point, 5-fold dose response, highest concentration 25 μM, about 18 hours, read-out: WIZ AC50; for Dmax at 25 µM: 100 − Amax; for Dmax at 25 µM / remaining activity at 25 µM: 293T cells; for remaining activity at 25 µM: DMSO-normalized, curve-fitted percentage of WIZ-HiBit remaining at 25 uM
Description: The HiBit system from Promega was used to develop high-throughput and quantitative assays to measure changes in WIZ protein levels in response to compounds. The HiBit tag was derived from a split Nanoluciferase and has the following protein sequence: […] (SEQ ID NO: 1). The complementary fragment of Nanoluciferase (known as LgBit, from Promega), was added to the HiBit tag to form an active Nanoluciferase enzyme whose activity can be precisely measured. In this way, the levels of a fusion protein with the HiBit tag can be quantified in cell lysates.
Lentiviral vectors, based on the Invitrogen™ pLenti6.2/V5 DEST backbone were constructed that places the HiBit tag upstream of WIZ and expressed the fusion protein from an HSVTK promotor.
To ensure moderate and consistent expression of the HiBit-WIZ fusion protein across all cells in the population, stable cell lines were constructed from cells harboring a single copy of the construct. Lentivirus packaged with the constructs were made using the ViraPower™ kit from Invitrogen™. 293T cells from ATCC (Catalog number: CRL-3216), were infected with the virus at low multiplicity of infection and selected by 5 μg/mL blasticidin in culture media for 2 weeks.
The levels of HiBit-WIZ tagged fusion proteins in compound-treated cell lines were measured as follows:
On day 1, cells were diluted to 1.0×10^6 cells/ml in normal growth medium. 20 μL of cell suspension were plated in each well of a solid white 384-well plate. Plates were incubated overnight in a 37° C. and 5% CO2 humidified tissue culture incubator.
On day 2, serial dilutions of compounds were made in 384-well plates. Compound plates were set up with DMSO in columns 1, 2, 23, 24, and 10-point compound dilution series in column 3-12 and column 13-22. 10 mM stock solution of compound were placed into column 3 or 13 and a 1:5 serial dilution was carried out until there was a 10-point dilution series per compound. 50 nL of diluted compounds were transferred into the plated cells by Echo® (Labcyte) acoustic transfer. The highest concentration of compound was 25 μM. Plates were incubated overnight (about 18 hours) in a 37° C. and 5% CO2 humidified tissue culture incubator.
On day 3, plates were removed from the incubator and allowed to equilibrate at room temperature for 60 minutes. HiBit substrate (Nano-Glo® HiBit Lytic Detection System, Promega Catalogue number: N3050) was added as described by the manufacturers protocols. Plates were incubated at room temperature for 30 minutes and luminescence was read using an EnVision® reader (PerkinElmer®). Data was analyzed and visualized using the Spotfire® software package.
WIZ Degradation Activity of Compounds (Table 1)
WIZ Amax reflects the DMSO-normalized, curve-fitted percentage of WIZ-HiBit remaining at 25 uM. It was calculated by normalizing […] controls to 100%, parametric curve fitting of the dose response data (10-point, 5-fold), followed by calculation of response at 25 uM using the fitted equation (nd=not determined).

[1] = HEK-293T, read-out: % degradation of WIZ (100 − Amax)

T1 sequence (O95785 whole entry, the tested form may be a part): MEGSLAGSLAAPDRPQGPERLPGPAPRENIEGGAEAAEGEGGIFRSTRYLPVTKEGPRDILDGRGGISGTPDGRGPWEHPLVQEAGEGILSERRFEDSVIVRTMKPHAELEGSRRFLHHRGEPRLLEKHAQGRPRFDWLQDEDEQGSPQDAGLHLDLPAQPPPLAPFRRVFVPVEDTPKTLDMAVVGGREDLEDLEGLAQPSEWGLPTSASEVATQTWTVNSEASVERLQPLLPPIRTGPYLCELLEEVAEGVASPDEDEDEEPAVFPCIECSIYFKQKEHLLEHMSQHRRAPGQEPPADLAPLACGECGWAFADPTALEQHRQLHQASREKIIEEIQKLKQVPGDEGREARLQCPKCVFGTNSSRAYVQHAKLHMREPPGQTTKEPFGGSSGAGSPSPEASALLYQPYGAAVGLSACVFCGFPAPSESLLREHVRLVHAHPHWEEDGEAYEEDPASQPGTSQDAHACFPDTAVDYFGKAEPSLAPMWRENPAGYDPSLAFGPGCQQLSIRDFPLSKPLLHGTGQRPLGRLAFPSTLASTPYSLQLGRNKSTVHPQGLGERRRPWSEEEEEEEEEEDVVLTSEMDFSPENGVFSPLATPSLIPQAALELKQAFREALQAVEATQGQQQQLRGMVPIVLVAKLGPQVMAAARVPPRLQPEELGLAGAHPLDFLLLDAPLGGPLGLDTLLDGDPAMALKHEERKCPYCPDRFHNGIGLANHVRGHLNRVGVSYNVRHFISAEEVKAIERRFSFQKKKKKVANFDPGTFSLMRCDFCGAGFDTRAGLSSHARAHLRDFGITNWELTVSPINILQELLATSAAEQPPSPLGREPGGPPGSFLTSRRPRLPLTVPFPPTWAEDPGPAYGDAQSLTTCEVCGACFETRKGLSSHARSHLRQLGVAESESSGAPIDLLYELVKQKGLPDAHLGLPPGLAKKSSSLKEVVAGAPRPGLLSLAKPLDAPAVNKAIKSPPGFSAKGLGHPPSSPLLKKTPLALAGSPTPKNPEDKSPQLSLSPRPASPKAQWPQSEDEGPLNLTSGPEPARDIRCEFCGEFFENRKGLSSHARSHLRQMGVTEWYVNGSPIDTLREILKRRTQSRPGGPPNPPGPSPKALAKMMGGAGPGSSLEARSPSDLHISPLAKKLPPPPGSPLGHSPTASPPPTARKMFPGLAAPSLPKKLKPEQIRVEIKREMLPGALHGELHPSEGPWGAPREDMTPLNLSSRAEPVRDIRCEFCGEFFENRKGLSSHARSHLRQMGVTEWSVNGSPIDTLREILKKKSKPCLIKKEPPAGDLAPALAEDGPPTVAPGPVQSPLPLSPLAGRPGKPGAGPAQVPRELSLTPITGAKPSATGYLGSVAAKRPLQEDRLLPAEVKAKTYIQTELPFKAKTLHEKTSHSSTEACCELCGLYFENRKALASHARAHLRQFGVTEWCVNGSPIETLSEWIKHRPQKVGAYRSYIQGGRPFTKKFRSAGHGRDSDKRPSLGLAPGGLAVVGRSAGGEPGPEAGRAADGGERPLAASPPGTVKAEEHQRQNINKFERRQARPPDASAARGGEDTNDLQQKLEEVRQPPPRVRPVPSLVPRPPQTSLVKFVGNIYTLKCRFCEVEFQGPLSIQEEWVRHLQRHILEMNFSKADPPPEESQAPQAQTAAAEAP
T1 sequence (Q96SW2 whole entry, the tested form may be a part): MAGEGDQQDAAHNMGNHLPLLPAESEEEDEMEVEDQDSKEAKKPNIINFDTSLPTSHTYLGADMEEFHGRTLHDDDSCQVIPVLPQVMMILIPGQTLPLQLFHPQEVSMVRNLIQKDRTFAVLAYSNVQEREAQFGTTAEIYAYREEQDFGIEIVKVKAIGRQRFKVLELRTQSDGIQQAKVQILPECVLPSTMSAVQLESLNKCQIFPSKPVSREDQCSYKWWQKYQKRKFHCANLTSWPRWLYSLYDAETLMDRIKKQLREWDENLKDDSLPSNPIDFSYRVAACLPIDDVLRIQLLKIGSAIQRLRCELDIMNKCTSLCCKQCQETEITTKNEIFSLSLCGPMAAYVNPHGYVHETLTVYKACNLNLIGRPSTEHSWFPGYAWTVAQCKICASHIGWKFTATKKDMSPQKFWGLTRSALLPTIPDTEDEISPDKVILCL
T1 sequence (Q16531 whole entry partner, the tested form may be a part): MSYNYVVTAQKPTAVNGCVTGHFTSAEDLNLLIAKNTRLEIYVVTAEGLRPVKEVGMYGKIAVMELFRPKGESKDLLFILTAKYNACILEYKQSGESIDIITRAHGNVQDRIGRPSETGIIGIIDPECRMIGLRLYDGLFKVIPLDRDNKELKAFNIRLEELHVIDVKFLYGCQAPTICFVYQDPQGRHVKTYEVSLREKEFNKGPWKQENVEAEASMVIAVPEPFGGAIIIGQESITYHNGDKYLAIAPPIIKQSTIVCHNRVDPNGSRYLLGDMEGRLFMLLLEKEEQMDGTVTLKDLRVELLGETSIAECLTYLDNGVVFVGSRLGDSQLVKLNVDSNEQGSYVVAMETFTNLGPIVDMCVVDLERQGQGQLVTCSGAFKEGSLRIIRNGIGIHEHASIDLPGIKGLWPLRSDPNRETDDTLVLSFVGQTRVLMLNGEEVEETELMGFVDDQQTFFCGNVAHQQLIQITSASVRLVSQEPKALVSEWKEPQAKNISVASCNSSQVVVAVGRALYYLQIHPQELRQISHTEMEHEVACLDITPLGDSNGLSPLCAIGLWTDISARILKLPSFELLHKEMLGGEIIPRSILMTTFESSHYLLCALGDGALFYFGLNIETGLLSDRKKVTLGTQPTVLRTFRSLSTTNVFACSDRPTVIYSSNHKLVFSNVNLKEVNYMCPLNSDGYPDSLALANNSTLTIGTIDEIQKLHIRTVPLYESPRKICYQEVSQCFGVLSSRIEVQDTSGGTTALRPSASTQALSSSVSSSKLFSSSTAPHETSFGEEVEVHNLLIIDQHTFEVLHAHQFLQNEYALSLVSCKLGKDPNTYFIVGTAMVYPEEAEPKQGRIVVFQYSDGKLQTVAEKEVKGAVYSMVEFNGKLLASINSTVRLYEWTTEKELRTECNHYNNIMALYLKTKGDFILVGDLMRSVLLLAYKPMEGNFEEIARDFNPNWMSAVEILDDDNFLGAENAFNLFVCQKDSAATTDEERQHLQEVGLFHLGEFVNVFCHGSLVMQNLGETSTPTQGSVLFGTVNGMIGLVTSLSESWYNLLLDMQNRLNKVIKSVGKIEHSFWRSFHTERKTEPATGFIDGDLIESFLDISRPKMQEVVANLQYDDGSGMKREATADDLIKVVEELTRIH

SMILES	Dmax [1] [%]	remaining activity (HEK-293T, read-out: WIZ Amax) [%]	DC50 [nM]	Dmax at 25 µM [1] [%]	remaining activity at 25 µM (HEK-293T, read-out: WIZ Amax) [%]
O=C1CCN(c2cnn3ccc(CC4CCN(S(=O)(=O)CC5CCCCC5)CC4)cc23)C(=O)N1 [Example 80, 1-(5-((1-((cyclohexylmethyl)sulfonyl)piperidin-4-yl)methyl)pyrazolo[1,5-a]pyridin-3-yl)dihydropyrimidine-2,4(1H,3H)-dione]	88	12	49	–	–
C[C@H]1C[C@H](Cc2ccn3ncc(N4CCC(=O)NC4=O)c3c2)CCN1CC(F)(F)F [Example 275, 1-(5-(((2S,4R)-2-methyl-1-(2,2,2-trifluoroethyl)piperidin-4-yl)methyl)pyrazolo[1,5-a]pyridin-3-yl)dihydropyrimidine-2,4(1H,3H)-dione]	–	–	20	79	21
O=C1CCN(c2cnn3ccc(CN4CCN(CC56CC7CC(CC(C7)C5)C6)CC4)cc23)C(=O)N1 [Example 194, 1-(5-((4-(((3r,5r,7r)-adamantan-1-yl)methyl)piperazin-1-yl)methyl)pyrazolo[1,5-a]pyridin-3-yl)dihydropyrimidine-2,4(1H,3H)-dione]	–	–	3	89	11
CC(C)CN1CCN(Cc2ccn3ncc(N4CCC(=O)NC4=O)c3c2)CC1(C)C [Example 233, 1-(5-((4-isobutyl-3,3-dimethylpiperazin-1-yl)methyl)pyrazolo[1,5-a]pyridin-3-yl)dihydropyrimidine-2,4(1H,3H)-dione]	–	–	589	40	60
C[C@@H]1CC(CN2CCC(Cc3ccn4ncc(N5CCC(=O)NC5=O)c4c3)CC2)C[C@H](C)O1 (stereo partly drawn) [Example 113]	–	–	4	88	12
Cc1cn(-c2cnn3ccc(CN4CCN(CC(C)C)[C@@H](C)C4)cc23)c(=O)[nH]c1=O [Example 359, (S)-1-(5-((4-isobutyl-3-methylpiperazin-1-yl)methyl)pyrazolo[1,5-a]pyridin-3-yl)-5-methylpyrimidine-2,4(1H,3H)-dione]	–	–	365	89	11
CC(C)CN1CCN(Cc2ccn3ncc(N4CCC(=O)NC4=O)c3c2)C[C@H]1C [Example 216]	–	–	89	65	35
O=C1CCN(c2cnn3ccc(CC4CCN(CCC5CCC5)CC4)cc23)C(=O)N1 [Example 13, 1-(5-((1-(2-cyclobutylethyl)piperidin-4yl)methyl)pyrazolo[1,5-a]pyridin-3-yl)dihydropyrimidine-2,4(1H,3H)-dione]	–	–	19	84	16
O=C1CCN(c2cnn3ccc(CN4CCN5CCC[C@H]5C4)cc23)C(=O)N1 [Example 260, (S)-1-(5-((hexahydropyrrolo[1,2-a]pyrazin-2(1H)-yl)methyl)pyrazolo[1,5-a]pyridin-3-yl)dihydropyrimidine-2,4(1H,3H)-dione]	–	–	796	68	32
CCC(CC)N1CCC(Cc2ccn3ncc(N4CCC(=O)NC4=O)c3c2)CC1 [Example 20, 1-(5-((1-(pentan-3-yl)piperidin-4-yl)methyl)pyrazolo[1,5-a]pyridin-3-yl)dihydropyrimidine-2,4(1H,3H)-dione]	–	–	22	79	21
O=C1CCN(c2cnn3ccc(CN4CCCN(CC5CCCCC5)CC4)cc23)C(=O)N1 [Example 249, 1-(5-((4-(cyclohexylmethyl)-1,4-diazepan-1-yl)methyl)pyrazolo[1,5-a]pyridin-3-yl)dihydropyrimidine-2,4(1H,3H)-dione]	–	–	300	41	59
C[C@@H]1CN(Cc2ccn3ncc(N4CCC(=O)NC4=O)c3c2)CCN1CC1CCOCC1 [Example 217]	–	–	92	75	25
O=C1CCN(c2cnn3ccc(CC4CCN(CC(F)(F)F)CC4)cc23)C(=O)N1 [Example 30, 1-(5-((1-(2,2,2-trifluoroethyl)piperidin-4-yl)methyl)pyrazolo[1,5-a]pyridin-3-yl)dihydropyrimidine-2,4(1H,3H)-dione]	–	–	201	80	20
Cc1cncc(CN2CCC(Cc3ccn4ncc(N5CCC(=O)NC5=O)c4c3)CC2)c1 [Example 36, 1-(5-((1-((5-methylpyridin-3-yl)methyl)piperidin-4-yl)methyl)pyrazolo[1,5-a]pyridin-3-yl)dihydropyrimidine-2,4(1H,3H)-dione]	–	–	68	72	28
C[C@H]1CN(Cc2ccn3ncc(N4CCC(=O)NC4=O)c3c2)CCN1CC1CC1 [Example 321, (S)-1-(5-((4-(cyclopropylmethyl)-3-methylpiperazin-1-yl)methyl)pyrazolo[1,5-a]pyridin-3-yl)dihydropyrimidine-2,4(1H,3H)-dione]	–	–	67	78	22
O=C1CCN(c2cnn3ccc(CN4CCN(CC5CC(F)(F)C5)CC4)cc23)C(=O)N1 [Example 174]	–	–	95	81	19
CC(C)CN1CCN(Cc2ccn3ncc(N4CCC(=O)NC4=O)c3c2)[C@@H](C)C1 [Example 222]	–	–	457	64	36
C[C@H]1CN(Cc2ccn3ncc(-n4ccc(=O)[nH]c4=O)c3c2)CCN1CC1CCC(F)(F)CC1 [Example 363, (S)-1-(5-((4-((4,4-difluorocyclohexyl)methyl)-3-methylpiperazin-1-yl)methyl)pyrazolo[1,5-a]pyridin-3-yl)pyrimidine-2,4(1H,3H)-dione]	–	–	109	85	15
O=C1CCN(c2cnn3ccc(CN4CCN(Cc5cscn5)CC4)cc23)C(=O)N1 [Example 197, 1-(5-((4-(thiazol-4-ylmethyl)piperazin-1-yl)methyl)pyrazolo[1,5-a]pyridin-3-yl)dihydropyrimidine-2,4(1H,3H)-dione]	–	–	1140	40	60
C[C@H]1C[C@H](Cc2ccn3ncc(N4CCC(=O)NC4=O)c3c2)CCN1CC(F)F [Example 274, 1-(5-(((2S,4R)-1-(2,2-difluoroethyl)-2-methylpiperidin-4-yl)methyl)pyrazolo[1,5-a]pyridin-3-yl)dihydropyrimidine-2,4(1H,3H)-dione]	–	–	32	77	23
C[C@H]1CN(Cc2ccn3ncc(N4CCC(=O)NC4=O)c3c2)CCN1CC(F)F [Example 327, (S)-1-(5-((4-(2,2-difluoroethyl)-3-methylpiperazin-1-yl)methyl)pyrazolo[1,5-a]pyridin-3-yl)dihydropyrimidine-2,4(1H,3H)-dione]	–	–	653	54	46
Cc1ccccc1CN1CCC(Cc2ccn3ncc(N4CCC(=O)NC4=O)c3c2)CC1 [Example 41, 1-(5-((1-(2-methylbenzyl)piperidin-4-yl)methyl)pyrazolo[1,5-a]pyridin-3-yl)dihydropyrimidine-2,4(1H,3H)-dione]	–	–	27	70	30
